Test results from article PMC11003488 (Journal of Enzyme Inhibition and Medicinal Chemistry, 2023).

What was measured:
Format in all cases: cell-based
Conditions in all cases: Homo sapiens
CCRF-CEM = experiment: NCI-60 SRB growth inhibition, one-dose and five-dose
HL-60(TB) = experiment: cells
K-562 = experiment: NCI-60 SRB growth inhibition, one-dose and five-dose
MOLT-4 = experiment: as above
SR = experiment: as above
A549/ATCC = experiment: as above
HOP-62 = experiment: as above
HOP-92 = experiment: as above
NCI-H226 = experiment: as above
NCI-H322M = experiment: as above
NCI-H460 = experiment: as above
NCI-H522 = experiment: as above
COLO 205 = experiment: as above
HT29 = experiment: as above
SW-620 = experiment: as above
SF-268 = experiment: as above
SF-295 = experiment: as above
SF-539 = experiment: as above
SNB-19 = experiment: as above
SNB-75 = experiment: as above
U251 = experiment: as above
LOX IMVI = experiment: as above
MALME-3M = experiment: as above
M14 = experiment: as above
MDA-MB-435 = experiment: as above
SK-MEL-28 = experiment: as above
SK-MEL-5 = experiment: as above
UACC-62 = experiment: as above
IGROV1 = experiment: as above
OVCAR-4 = experiment: as above
OVCAR-5 = experiment: as above
NCI/ADR-RES = experiment: as above
SK-OV-3 = experiment: as above
786-0 = experiment: as above
A498 = experiment: as above
RXF 393 = experiment: as above
TK-10 = experiment: as above
PC-3 = experiment: as above
DU-145 = experiment: as above
HS 578 T = experiment: as above
BT-549 = experiment: as above
MDA-MB-468 = experiment: as above
[1] = read-out: percent growth inhibition

With `O=C(/C=C/c1cccnc1)c1cccc(NCc2ccc(CO)cc2)c1` [Compound 5e, (E)-1–(3-((4-(hydroxymethyl)benzyl)amino)phenyl)-3-(pyridin-3-yl)prop-2-en-1-one] the GI50 (CCRF-CEM) was 5.17 µM, the inhibition at 10 µM (CCRF-CEM; [1]) was 131% and the GI50 (HL-60(TB); HL-60) was 4.23 µM. For the same molecule, the inhibition at 10 µM (HL-60(TB); HL-60, read-out: percent growth inhibition) was 118%, the GI50 (K-562; K562) was 2.75 µM and the inhibition at 10 µM (K-562; K562, read-out: percent growth inhibition) was 99.1%. For the same molecule, the GI50 (MOLT-4; MOLT-4) was 2.69 µM, the inhibition at 10 µM (MOLT-4; MOLT-4, read-out: percent growth inhibition) was 120% and the GI50 (SR) was 2.62 µM. For the same molecule, the GI50 (A549/ATCC; A549) was 16.9 µM, the inhibition at 10 µM (A549/ATCC; A549, read-out: percent growth inhibition) was 16.4% and the GI50 (HOP-62; HOP-62) was 15 µM. For the same molecule, the inhibition at 10 µM (HOP-62; HOP-62, read-out: percent growth inhibition) was 20.7%, the GI50 (HOP-92; HOP-92) was 12.5 µM and the inhibition at 10 µM (HOP-92; HOP-92, read-out: percent growth inhibition) was 23.3%. The GI50 (NCI-H226; NCI-H226) was 11.2 µM, the inhibition at 10 µM (NCI-H226; NCI-H226, read-out: percent growth inhibition) was 123% and the GI50 (NCI-H322M) was 15 µM. It also gave an inhibition at 10 µM (NCI-H322M; [1]) of 18.6%, a GI50 (NCI-H460; NCI-H460) of 14 µM and an inhibition at 10 µM (NCI-H460; NCI-H460, read-out: percent growth inhibition) of 64.7%. For the same molecule, the GI50 (NCI-H522; NCI-H522) was 11.4 µM, the inhibition at 10 µM (NCI-H522; NCI-H522, read-out: percent growth inhibition) was 57.6% and the GI50 (COLO 205; COLO 205) was 16.3 µM. For the same molecule, the inhibition at 10 µM (COLO 205; COLO 205, read-out: percent growth inhibition) was 37.3%, the GI50 (HT29; HT-29) was 8.21 µM and the inhibition at 10 µM (HT29; HT-29, read-out: percent growth inhibition) was 173%. It also gave a GI50 (SW-620; SW-620) of 2.06 µM, an inhibition at 10 µM (SW-620; SW-620, read-out: percent growth inhibition) of 140% and a GI50 (SF-268; SF-268) of 16.9 µM. The inhibition at 10 µM (SF-268; SF-268, read-out: percent growth inhibition) was 64.8%, the GI50 (SF-295; SF-295) was 14.5 µM and the inhibition at 10 µM (SF-295; SF-295, read-out: percent growth inhibition) was 39.8%. It also gave a GI50 (SF-539; SF-539) of 14.5 µM, an inhibition at 10 µM (SF-539; SF-539, read-out: percent growth inhibition) of 98.5% and a GI50 (SNB-19; SNB-19) of 12.4 µM. It also gave an inhibition at 10 µM (SNB-19; SNB-19, read-out: percent growth inhibition) of 74.9%, a GI50 (SNB-75; SNB-75) of 9.69 µM and an inhibition at 10 µM (SNB-75; SNB-75, read-out: percent growth inhibition) of 14.7%. For the same molecule, the GI50 (U251; U-251) was 4.94 µM, the inhibition at 10 µM (U251; U-251, read-out: percent growth inhibition) was 146% and the GI50 (LOX IMVI) was 1.76 µM. The inhibition at 10 µM (LOX IMVI; [1]) was 197%, the GI50 (MALME-3M) was 13.3 µM and the inhibition at 10 µM (MALME-3M; [1]) was 41.4%. It also gave a GI50 (M14; M14) of 12.4 µM, an inhibition at 10 µM (M14; M14, read-out: percent growth inhibition) of 91.9% and a GI50 (MDA-MB-435; MDA-MB-435) of 5.26 µM. For the same molecule, the inhibition at 10 µM (MDA-MB-435; MDA-MB-435, read-out: percent growth inhibition) was 58.7%, the GI50 (SK-MEL-28; SK-MEL-28) was 13.6 µM and the inhibition at 10 µM (SK-MEL-28; SK-MEL-28, read-out: percent growth inhibition) was 121%. It also gave a GI50 (SK-MEL-5; SK-MEL-5) of 12.5 µM, an inhibition at 10 µM (SK-MEL-5; SK-MEL-5, read-out: percent growth inhibition) of 85.7% and a GI50 (UACC-62; UACC-62) of 11.3 µM. The inhibition at 10 µM (UACC-62; UACC-62, read-out: percent growth inhibition) was 59.8%, the GI50 (IGROV1; IGROV-1) was 3.58 µM and the inhibition at 10 µM (IGROV1; IGROV-1, read-out: percent growth inhibition) was 86.3%. The GI50 (OVCAR-4; OVCAR-4) was 11.6 µM, the inhibition at 10 µM (OVCAR-4; OVCAR-4, read-out: percent growth inhibition) was 48.8% and the GI50 (OVCAR-5; OVCAR-5) was 14.6 µM. For the same molecule, the inhibition at 10 µM (OVCAR-5; OVCAR-5, read-out: percent growth inhibition) was 32.6%, the GI50 (NCI/ADR-RES) was 11.3 µM and the inhibition at 10 µM (NCI/ADR-RES; [1]) was 104%. For the same molecule, the GI50 (SK-OV-3; SK-OV-3) was 15.8 µM, the inhibition at 10 µM (SK-OV-3; SK-OV-3, read-out: percent growth inhibition) was 0.04% and the GI50 (786-0; 786-0) was 15.2 µM. It also gave an inhibition at 10 µM (786-0; 786-0, read-out: percent growth inhibition) of 108%, a GI50 (A498; A498) of 14.8 µM and an inhibition at 10 µM (A498; A498, read-out: percent growth inhibition) of 15.3%. The GI50 (RXF 393; RXF 393) was 13.7 µM, the inhibition at 10 µM (RXF 393; RXF 393, read-out: percent growth inhibition) was 121% and the GI50 (TK-10; TK-10) was 15 µM. For the same molecule, the inhibition at 10 µM (TK-10; TK-10, read-out: percent growth inhibition) was 30.6%, the GI50 (PC-3; PC-3) was 11.6 µM and the inhibition at 10 µM (PC-3; PC-3, read-out: percent growth inhibition) was 62.6%. For the same molecule, the GI50 (DU-145; DU-145) was 12.8 µM, the inhibition at 10 µM (DU-145; DU-145, read-out: percent growth inhibition) was 55% and the GI50 (HS 578 T) was 18 µM. It also gave an inhibition at 10 µM (HS 578 T; [1]) of 33.5%, a GI50 (BT-549; BT-549) of 6.12 µM and an inhibition at 10 µM (BT-549; BT-549, read-out: percent growth inhibition) of 98.1%. The GI50 (MDA-MB-468; MDA-MB-468) was 4 µM and the inhibition at 10 µM (MDA-MB-468; MDA-MB-468, read-out: percent growth inhibition) was 153%.
